# Results reported in the NIST ThermoML archive (doi:10.1021/je600554h).
# Numbers after ± are expanded uncertainties.
# Assay: xn = mol fraction of the nth substance listed
# Conditions: Liquid; for viscosity: 100 kPa, Capillary tube (Ostwald / Ubbelohde) method; for mass density: 1000 kPa, Vibrating tube method
smiles,measurement,setting,value
COC(C)(C)C [2-methoxy-2-methylpropane] + CCCCCCC,viscosity,"273.15 K, x1 = 0.1004",0.515 ± 0.009 mPa·s
same,viscosity,"273.15 K, x1 = 0.1998",0.507 ± 0.009 mPa·s
same,viscosity,"273.15 K, x1 = 0.3008",0.494 ± 0.009 mPa·s
same,viscosity,"273.15 K, x1 = 0.4024",0.485 ± 0.009 mPa·s
same,viscosity,"273.15 K, x1 = 0.5007",0.476 ± 0.009 mPa·s
same,viscosity,"273.15 K, x1 = 0.5989",0.468 ± 0.009 mPa·s
same,viscosity,"273.15 K, x1 = 0.6981",0.462 ± 0.009 mPa·s
same,viscosity,"273.15 K, x1 = 0.7887",0.456 ± 0.009 mPa·s
same,viscosity,"273.15 K, x1 = 0.898",0.448 ± 0.009 mPa·s
same,mass density,"273.15 K, x1 = 0.1042",705.19 ± 0.25 kg/m3
same,mass density,"273.15 K, x1 = 0.2146",710.4 ± 0.25 kg/m3
same,mass density,"273.15 K, x1 = 0.3024",714.67 ± 0.26 kg/m3
same,mass density,"273.15 K, x1 = 0.3982",719.73 ± 0.27 kg/m3
same,mass density,"273.15 K, x1 = 0.4996",725.44 ± 0.28 kg/m3
same,mass density,"273.15 K, x1 = 0.5875",730.85 ± 0.3 kg/m3
same,mass density,"273.15 K, x1 = 0.6985",738.08 ± 0.31 kg/m3
same,mass density,"273.15 K, x1 = 0.794",744.8 ± 0.33 kg/m3
same,mass density,"273.15 K, x1 = 0.889",752 ± 0.33 kg/m3
same,viscosity,"278.15 K, x1 = 0.1004",0.484 ± 0.009 mPa·s
same,viscosity,"278.15 K, x1 = 0.1998",0.474 ± 0.009 mPa·s
same,viscosity,"278.15 K, x1 = 0.3008",0.464 ± 0.009 mPa·s
same,viscosity,"278.15 K, x1 = 0.4024",0.456 ± 0.009 mPa·s
same,viscosity,"278.15 K, x1 = 0.5007",0.448 ± 0.009 mPa·s
same,viscosity,"278.15 K, x1 = 0.5989",0.44 ± 0.009 mPa·s
same,viscosity,"278.15 K, x1 = 0.6981",0.433 ± 0.009 mPa·s
same,viscosity,"278.15 K, x1 = 0.7887",0.427 ± 0.009 mPa·s
same,viscosity,"278.15 K, x1 = 0.898",0.421 ± 0.008 mPa·s
same,mass density,"278.15 K, x1 = 0.1042",700.96 ± 0.25 kg/m3
same,mass density,"278.15 K, x1 = 0.2146",706.09 ± 0.25 kg/m3
same,mass density,"278.15 K, x1 = 0.3024",710.3 ± 0.26 kg/m3
same,mass density,"278.15 K, x1 = 0.3982",715.27 ± 0.27 kg/m3
same,mass density,"278.15 K, x1 = 0.4996",720.9 ± 0.28 kg/m3
same,mass density,"278.15 K, x1 = 0.5875",726.22 ± 0.29 kg/m3
same,mass density,"278.15 K, x1 = 0.6985",733.34 ± 0.3 kg/m3
same,mass density,"278.15 K, x1 = 0.794",739.96 ± 0.32 kg/m3
same,mass density,"278.15 K, x1 = 0.889",747.05 ± 0.33 kg/m3
same,viscosity,"283.15 K, x1 = 0.1004",0.455 ± 0.009 mPa·s
same,viscosity,"283.15 K, x1 = 0.1998",0.446 ± 0.009 mPa·s
same,viscosity,"283.15 K, x1 = 0.3008",0.437 ± 0.009 mPa·s
same,viscosity,"283.15 K, x1 = 0.4024",0.429 ± 0.009 mPa·s
same,viscosity,"283.15 K, x1 = 0.5007",0.422 ± 0.009 mPa·s
same,viscosity,"283.15 K, x1 = 0.5989",0.414 ± 0.008 mPa·s
same,viscosity,"283.15 K, x1 = 0.6981",0.408 ± 0.008 mPa·s
same,viscosity,"283.15 K, x1 = 0.7887",0.403 ± 0.008 mPa·s
same,viscosity,"283.15 K, x1 = 0.898",0.397 ± 0.008 mPa·s
same,mass density,"283.15 K, x1 = 0.1042",696.72 ± 0.25 kg/m3
same,mass density,"283.15 K, x1 = 0.2146",701.76 ± 0.25 kg/m3
same,mass density,"283.15 K, x1 = 0.3024",705.9 ± 0.26 kg/m3
same,mass density,"283.15 K, x1 = 0.3982",710.79 ± 0.27 kg/m3
same,mass density,"283.15 K, x1 = 0.4996",716.32 ± 0.28 kg/m3
same,mass density,"283.15 K, x1 = 0.5875",721.55 ± 0.29 kg/m3
same,mass density,"283.15 K, x1 = 0.6985",728.56 ± 0.3 kg/m3
same,mass density,"283.15 K, x1 = 0.794",735.08 ± 0.32 kg/m3
same,mass density,"283.15 K, x1 = 0.889",742.07 ± 0.33 kg/m3
same,viscosity,"288.15 K, x1 = 0.1004",0.429 ± 0.009 mPa·s
same,viscosity,"288.15 K, x1 = 0.1998",0.421 ± 0.009 mPa·s
same,viscosity,"288.15 K, x1 = 0.3008",0.413 ± 0.009 mPa·s
same,viscosity,"288.15 K, x1 = 0.4024",0.405 ± 0.008 mPa·s
same,viscosity,"288.15 K, x1 = 0.5007",0.398 ± 0.008 mPa·s
same,viscosity,"288.15 K, x1 = 0.5989",0.391 ± 0.008 mPa·s
same,viscosity,"288.15 K, x1 = 0.6981",0.385 ± 0.008 mPa·s
same,viscosity,"288.15 K, x1 = 0.7887",0.38 ± 0.008 mPa·s
same,viscosity,"288.15 K, x1 = 0.898",0.375 ± 0.008 mPa·s
same,mass density,"288.15 K, x1 = 0.1042",692.45 ± 0.25 kg/m3
same,mass density,"288.15 K, x1 = 0.2146",697.4 ± 0.25 kg/m3
same,mass density,"288.15 K, x1 = 0.3024",701.47 ± 0.26 kg/m3
same,mass density,"288.15 K, x1 = 0.3982",706.28 ± 0.26 kg/m3
same,mass density,"288.15 K, x1 = 0.4996",711.72 ± 0.27 kg/m3
same,mass density,"288.15 K, x1 = 0.5875",716.86 ± 0.29 kg/m3
same,mass density,"288.15 K, x1 = 0.6985",723.76 ± 0.3 kg/m3
same,mass density,"288.15 K, x1 = 0.794",730.17 ± 0.32 kg/m3
same,mass density,"288.15 K, x1 = 0.889",737.04 ± 0.32 kg/m3
same,viscosity,"293.15 K, x1 = 0.1004",0.406 ± 0.009 mPa·s
same,viscosity,"293.15 K, x1 = 0.1998",0.398 ± 0.008 mPa·s
same,viscosity,"293.15 K, x1 = 0.3008",0.39 ± 0.008 mPa·s
same,viscosity,"293.15 K, x1 = 0.4024",0.383 ± 0.008 mPa·s
same,viscosity,"293.15 K, x1 = 0.5007",0.376 ± 0.008 mPa·s
